Laboratory results reported in patent publication US11912697B1, “1,3-benzothiazol-2-yl-N′-[(pyridine-3-carbonyl)oxy]ethanimidamide as an antitumor and antimicrobial compound” (King Faisal University, priority 2023, dated 2024).
Each block holds one molecule with its values, some of them ahead of it.

What was measured:
[1] = test system: human osteosarcoma cells (MG-63); assay: Cytotoxicity by SRB assay, MG-63 cells; type: cell-based; conditions: for IC50: mean ± SD
Experimental: (§1) The human prostate cancer cells (PC3) and human osteosarcoma cells (MG-63) were obtained from Nawah Scientific Inc. (Mokatam, Cairo, Egypt) and cultured in DMEM (Dulbecco's modified eagle's medium), Gibco, USA, supplemented with fetal bovine serum (FBS) at a concentration of 10% and 100 U/mL of penicillin and streptomycin (PS). The Cells were incubated at 37° C. in a humidified environment that contained 5% CO2.
(§2) Cells were seeded in 96-well plates as aliquots of 100 μL cell suspension and incubated in a complete media for 24 h. Afterward, cells were treated with N′-[(2-chlorobenzoyl)oxy]-1,3-benzothiazole-2-carboximidamide at diverse concentrations ranging from 0.01 μM to 100 μM for 72 h. Then, cells were fixed at 4° C. for one hour with 150 μL of 10% trichloroacetic acid (TCA). After washing the cells five times with distilled water, 70 μL of sulforhodamine (SRB) solution (0.4% w/v) was added and incubated for 10 min at room temperature in a dark place. Cells were washed with 1% acetic acid three times and allowed to air-dry. Then, 150 μL of Tris pH 10.5 (10 mM) was added, and the absorbance was measured at 540 nm using a BMG LABTECH®-FLUOstar Omega microplate reader (Ortenberg, Germany). Half maximal inhibitory concentrations (IC50) values were calculated for each experiment using GraphPad Prism 6 software. IC50 values were reported as mean […] SD.
(§3) The inhibition was calculated using the following equation: Inhibition %=100−Average Viability

[2] = test system: Bacillus cereus, Staphylococcus aureus, Pseudomonas aeruginosa, Escherichia coli, Aspergillus flavus, Chrysosporium keratinophilum; assay: Agar plate disc-diffusion antimicrobial screen; type: cell-based; conditions: 10 μL of 10 mg/mL in DMSO per disc, result in words only
Experimental: The agar plate disc-diffusion method was applied. Sterilized filter papers (6 mm in diameter) were wetted with 10 μL of a solution of each compound to be tested, containing 10 mg/mL in DMSO, and the discs were allowed to air dry. The discs were then placed onto the surface of agar plates (nutrient agar for bacteria and Sabouraud's dextrose agar for fungi) and seeded with the test organism. Each plate contained 15 mL of the agar medium, previously seeded with 0.2 mL of the broth culture of each organism pre-grown for 18 h. The plates were incubated at 37° C. for 48 h, and 72 h for fungi. The inhibition zones were measured in mm. Discs impregnated with DMSO were used as a control, and its inhibition zone was subtracted from the tested compound actual inhibition zone.
In particular, the present 1,3-benzothiazol-2-yl-N′-[(pyridine-3-carbonyl)oxy]ethanimidamide was screened against gram positive bacteria, namely Bacillus cereus and Staphylococcus aureus, and gram-negative bacterial strains, namely Pseudomonas aeruginosa and Escherichia coli, while the antifungal activity was screened against Aspergillus flavus and Chrysosporium keratinophilum.

[3] = test system: human prostate cancer cells (PC3); assay: Cytotoxicity by SRB assay, PC3 cells; type: cell-based; conditions: PC-3 cells; for IC50: mean ± SD
Experimental: as §1, §2, §3

melting point: 150 to 152 °C
Structure (SMILES): N/C(Cc1nc2ccccc2s1)=N\OC(=O)c1cccnc1 [Present Compound, 1,3-benzothiazol-2-yl-N′-[(pyridine-3-carbonyl)oxy]ethanimidamide]
IC50 ([1]; 72 h): 3.59 ± 0.2 µM | inhibition at 10 µg/mL ([1]; Homo sapiens, 10 μg/ml, 72 h): 91.2% | inhibition at 100 µg/mL ([1]; Homo sapiens, 100 μg/ml, 72 h): 92.1% | IC50 ([1]; Homo sapiens, MG-63, 72 h): < 4 µM | antimicrobial activity [2]: high levels of antimicrobial activity | Prostate Cancer (PC-3) Inhibition % ([3]; 10 μg/ml, 72 h): 96.21% | inhibition at 10 µg/mL ([3]; Homo sapiens, PC-3, 72 h, 10 μg/ml): 96% | inhibition at 100 µg/mL ([3]; Homo sapiens, PC-3, 72 h, 100 μg/ml): 97% | IC50 ([3]; Homo sapiens, PC-3, 72 h): < 4 µM | IC50 ([3]; 72 h): 2.71 ± 0.03 µM

Structure (SMILES): NC(=NOC(=O)c1ccccc1Cl)c1nc2ccccc2s1 [N′-[(2-chlorobenzoyl)oxy]-1,3-benzothiazole-2-carboximidamide]
antimicrobial activity [2]: excellent antimicrobial activities

Structure (SMILES): COc1cccc2c1C(=O)c1c(O)c3c(c(O)c1C2=O)C[C@@](O)(C(=O)CO)C[C@@H]3O[C@H]1C[C@H](N)[C@H](O)[C@H](C)O1 [DOX, Doxorubicin, reference compound]
IC50 ([1]; Homo sapiens, MG-63, 72 h): 9.4 ± 1.1 µM | IC50 ([3]; Homo sapiens, PC-3, 72 h): 7.6 ± 0.45 µM
